Results published in article PMC8864869, “A short peptide derived from pigment epithelial-derived factor exhibits an angioinhibitory effect” (BMC Ophthalmology, 2022).

What was measured:
RPMI8226 cells = test: Annexin V-FITC/PI double-staining apoptosis assay in RPMI8226 cells; assay type: cell-based, human; details: 10 ng/ml VEGF + 25 μM peptide, 24 h, serum-free; early + late apoptosis; mean ± SD, three independent experiments
Procedure: (§1) Cell apoptosis was examined using a TACS annexin V-FITC kit according to the manufacturer’s instructions for in situ staining. The cell numbers were monitored by counterstaining with Hoechst 33342. Afterward, apoptosis was examined and photographed by a Zeiss epifluorescence microscope (× 100, 10 fields/sample). Images were recorded on Zeiss software.
Fig. 2 The 34-mer and 7-mer induce apoptosis of RPMI8226 cells. a Fluorescence microscopy of annexin V-FITC/PI double staining. Treatment of RPMI8226 cells was as described in Fig. 1. Apoptosis was determined by annexin V-FITC staining (green dots) and double stained with propidium iodide (red dots). A representative of three independent experiments is shown. b The percentage of apoptotic cells was quantified by dividing the number of annexin V-positive cells by the total number of cells counted by phase-contrast light microscopy. Control peptide indicates cells were treated with the 5-mer. Histograms show means ± SD. ^aP < 0.005 versus peptide solvent-treated cells. ^bP < 0.0002 versus VEGF-treated cells. ^cP < 0.001 versus 34-mer-treated cells
Fig. 3 The 7-mer induces JNK signaling to trigger RPMI8226 cell apoptosis. 3 × 10^5 cells were serum starved for 24 h and then exposed to 10 ng/ml VEGF and 25 μM 7-mer for the indicated time periods. a Western blotting was performed to detect the active phosphorylated forms of JNK (p-JNK) and p38 MAPK (p-p38), shown in the upper panels. Antibodies were then stripped and the blots were re-incubated with anti-JNK and anti-p38 MAPK antibodies (lower panels), respectively, to detect the levels of total JNK and p38 MAPK. b Densitometric analyses from three independent experiments are shown. c Cell were pretreated with 10 μM SP600125 or SB203580 for 10 min and then treated as described above for 24 h and apoptosis was quantified using the annexin V-FITC apoptosis detection kit. *P < 0.0001 versus 7-mer-treated cells

[1] = test system: p53, Bax, p21, cleaved caspase-3; test: Western blot of p53, Bax, p21 and cleaved caspase-3 in RPMI8226 cells; assay type: cell-based, human
Excerpt: Cell lysis and SDS–PAGE were as described previously. Antibodies used in this study were for active p38 MAPK and active JNK (Promega, Madison, WI), p38 MAPK/SAPK2, JNK (Upstate Biotechnology, Lake Placid, NY), p53 (Chemicon, Temecula, CA), bax, p21, cleaved caspase-3 and β-actin (Abcam Ltd., Cambridge, UK). Proteins of interest were detected using the appropriate IgG-horseradish peroxidase-linked secondary antibody (Santa Cruz Biotechnology) and enhanced chemiluminescence reagent (Amersham, Arlington Heights, IL). X-ray films were scanned on a model GS-700 Imaging Densitometer (Bio-Rad, Hercules, CA) and analyzed with Labworks 4.0 software. For quantification, blots from at least three independent experiments were used.
Fig. 4 The 7-mer induces JNK signaling to trigger p53/bax/p21^Waf1 expression in RPMI8226 cells. a and b Cell treatments were as described in Fig. 3. Cell lysates were then prepared for western blot analysis of p53, Bax, and p21. Representative blots and densitometric analyses from three independent experiments are shown. ^*P < 0.001 versus 7-mer-treated cells

HUVECs [2] = test: Endothelial cell capillary-like tube formation assay; assay type: cell-based, human; details: 20 ng/ml VEGF, 10 μM 7-mer, matrigel, 0.5% FBS, 6 h
Procedure: (§2) Cells were grown in Medium 200 with LSGS (supplement contains 1.9% fetal bovine serum, 3 ng/ml bFGF, 10 μg/ml heparin, 1 μg/ml hydrocortisone, and 10 ng/ml EGF). Culture plates were coated with 2% gelatin. Cells (passages 4–8) were cultured at 37 °C in a humidified atmosphere of 5% CO2. For peptide treatment, HUVECs were cultured in low serum (0.5% FBS) medium containing 20 ng/ml VEGF and 7-mer peptide (20 μM, unless otherwise specified).
Growth factor-reduced matrigel was pipetted into pre-chilled 24-well plates (150 μl matrigel per well) and polymerized for 45 min at 37 °C. HUVECs (4 × 10^4 per well) in low serum (0.5% FBS) medium were treated with 20 ng/ml VEGF and 7-mer (10 μM) in matrigel coated plates. After 6 h of incubation, tubular structures were photographed. Images were captured using a Cannon camera on a Zeiss inverted microscope with magnification × 40.
The experiment was repeated three times. Magnification is × 40. b The 7-mer induces HUVEC apoptosis in the presence of VEGF. Cell apoptosis was analyzed using the Annexin V-FITC Apoptosis Detection kit according to the in situ staining protocol after treatment for 16 h. Double staining with an annexin V-FITC and the fluorescent dye Hoechst 33342 was used to visualize the apoptotic cells (green) and nuclei (blue), respectively. […] The percentages of apoptotic cells were quantified. ^aP < 0.005 versus VEGF-treated cells

HUVECs [3] = test: Annexin V-FITC apoptosis assay in HUVECs; assay type: cell-based, human; details: 20 ng/ml VEGF + peptide (20 μM), 0.5% FBS, 16 h; four independent experiments
Procedure: as §2, §1
The experiment was repeated three times. Magnification is × 40. b The 7-mer induces HUVEC apoptosis in the presence of VEGF. Cell apoptosis was analyzed using the Annexin V-FITC Apoptosis Detection kit according to the in situ staining protocol after treatment for 16 h. Double staining with an annexin V-FITC and the fluorescent dye Hoechst 33342 was used to visualize the apoptotic cells (green) and nuclei (blue), respectively. A representative result of four independent experiments is shown. The percentages of apoptotic cells were quantified. ^aP < 0.005 versus VEGF-treated cells

[4] = test system: VEGF-induced corneal neovascularization; test: Mouse corneal micropocket assay; assay type: in vivo; details: C57BL/6 mice, pellet with 200 ng VEGF + 2.5 μg 7-mer, day 7
Procedure: The assay was performed according to procedures described previously. Briefly, corneal micropockets were created in 6-week-old C57BL/6 mice with the needle of 1-ml injector. A micropellet of sucrose aluminum sulfate and hydron polymer containing 200 ng VEGF, with or without 2.5 μg 7-mer peptide, was delivered into each corneal pocket. Eyes were photographed by a slit-lamp biomicroscope on day 7 after micropellet implantation. Ingrowth of the blood vessels into the avascular cornea, towards the pellet, was scored as a positive response. The results are reported as the fraction of positive corneas of the total implanted.
Fig. 6 The effect of the 7-mer on VEGF-induced microvessel sprouting of aortic ring and corneal neovascularization. a Rat aortic ring assay. Photomicrographs of aortic ring explants after treatment for 5 days (magnification × 40). Sprouting was evaluated on a scale from 0 (no sprouts) to 3 (profuse sprouting). There was no sprouting of vessels from ex vivo aortic rings embedded in Matrigel without LSGS or VEGF. b The 7-mer inhibits VEGF-induced corneal angiogenesis in C57BL/6 mice. Representative corneas and final scoring determining the number of positive corneas per total implantations. […]

[5] = 7-mer for 8 h, VEGF-treated RPMI8226 cells, densitometry, three independent experiments

7-mer: PEDF Asp64-Ser70, N-acetylated, C-amidated (Ac-DLYRVRS-NH2; UniProt P36955 64-70, looked up, fragment)
apoptotic (annexin V+) RPMI8226 cells (RPMI8226 cells): 38.6 ± 2.1% | Bax protein level compared to solvent control [1, 5]: 4.5 ± 0.40 fold | p21Waf1 protein level compared to solvent control [1, 5]: 5.5 ± 0.43 fold | p53 protein level compared to solvent control [1, 5]: 3.6 ± 0.39 fold | cleaved/active caspase-3 ([1]; 7-mer treatment for 24 h): elevation of cleaved/active caspase-3 | VEGF-stimulated tube-like network of HUVECs (HUVECs [2]): marked decrease of the VEGF-stimulated tube-like network | apoptotic HUVECs (annexin V-FITC) (HUVECs [3]): 43.0 ± 5.5% | VEGF-induced neovessels in the corneas [4]: prevented by the 7-mer | Positive Corneas /Total ([4]; vehicle 10/12): 0/8
